The values below come from patent US11078170B2 (Assembly Biosciences, Inc., priority 2017, dated 2021).

For orientation: EC50 means the midpoint of the concentration-response curve.

This test concerns HBV viral production from HepAD38 cells. Briefly: Activity of test compounds on viral production from HepAD38 cells (viral load by qPCR of HBV core sequence in supernatant). Type of test: cell-based. Conditions: Hepatitis B virus, 120 h, 5 days incubation, HBV DNA in supernatant by qPCR, top concentration 10 μM, read-out: Viral Load EC50 Activity range. Put shortly: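 HepAD38 cells, 50,000/well in tetracycline-free 2% FBS medium, treated 5 days at 37° C. with compound from 10 μM top concentration. HBV DNA in supernatant quantified by TaqMan qPCR of core sequence against DNA standards, relative to DMSO wells; CellTiter-Glo viability read in parallel. EC50/CC50 from four-parameter logistic fit.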
Turning to `CN1[C@@H](C(=O)Nc2ccc(F)c(Cl)c2)C[C@@H](c2ccc(C(F)(F)F)cc2)NS1(=O)=O` (stereo in doubt) [HBV-CSU-217-ISO-II, Cis-N-(3-Chloro-4-fluorophenyl)-2-methyl-5-(4-(trifluoromethyl)phenyl)-1,2,6-thiadiazinane-3-carboxamide 1,1-dioxide], the EC50 is less than 1 µM.

In the case of `CN1[C@@H](C(=O)Nc2ccc(F)c(Cl)c2)C[C@@H](c2cc(-c3ccc(F)cn3)cs2)NS1(=O)=O` (stereo in doubt) [HBV-CSU-243-ISO-I, Cis-N-(3-chloro-4-fluorophenyl)-5-(4-(5-fluoropyridin-2-yl)thiophen-2-yl)-2-methyl-1,2,6-thiadiazinane-3-carboxamide 1,1-dioxide], the EC50 was more than 5 µM. For the compound `CN1[C@H](C(=O)Nc2ccc(F)c(Cl)c2)C[C@H](c2cc(-c3ccc(F)cn3)cs2)NS1(=O)=O` (stereo in doubt) [HBV-CSU-243-ISO-II, Cis-N-(3-chloro-4-fluorophenyl)-5-(4-(5-fluoropyridin-2-yl)thiophen-2-yl)-2-methyl-1,2,6-thiadiazinane-3-carboxamide 1,1-dioxide], the EC50 was less than 1 µM. In the case of `CN1[C@H](C(=O)Nc2ccc(F)c(Cl)c2)C[C@H](c2ncc(-c3ccn(C)n3)s2)NS1(=O)=O` (stereo in doubt) [HBV-CSU-280-ISO-I, Cis-N-(3-Chloro-4-fluorophenyl)-2-methyl-5-(5-(1-methyl-1H-pyrazol-3-yl)thiazol-2-yl)-1,2,6-thiadiazinane-3-carboxamide 1,1-dioxide], the EC50 was in the range of 1 to 5 µM. To `CN1[C@@H](C(=O)Nc2ccc(F)c(Cl)c2)C[C@@H](c2ncc(-c3ccn(C)n3)s2)NS1(=O)=O` (stereo in doubt) [HBV-CSU-280-ISO-II, Cis-N-(3-Chloro-4-fluorophenyl)-2-methyl-5-(5-(1-methyl-1H-pyrazol-3-yl)thiazol-2-yl)-1,2,6-thiadiazinane-3-carboxamide 1,1-dioxide] belongs less than 1 µM; to `CN1[C@@H](C(=O)Nc2ccc(F)c(Cl)c2)C[C@@H](c2ncc(-c3c[nH]cn3)s2)NS1(=O)=O` (stereo in doubt) [HBV-CSU-333-ISO-II, 5-(5-(1H-imidazol-4-yl)thiazol-2-yl)-N-(3-chloro-4-fluorophenyl)-2-methyl-1,2,6-thiadiazinane-3-carboxamide 1,1-dioxide], 1 to 5 µM. In the case of `[2H]C1[C@]([2H])(c2ncc(-c3cn(C([2H])([2H])[2H])cn3)s2)NS(=O)(=O)N(C([2H])([2H])[2H])[C@]1([2H])C(=O)Nc1ccc(F)c(Cl)c1` (stereo in doubt) [HBV-CSU-339-ISO-I, Cis-N-(3-Chloro-4-fluorophenyl)-2-(methyl-d3)-5-(5-(1-(methyl-d3)-1H-imidazol-4-yl)thiazol-2-yl)-1,2,6-thiadiazinane-3,4,5-d3-3-carboxamide 1,1-dioxide] it was less than 1 µM. To `[2H]C1[C@]([2H])(C(=O)Nc2ccc(F)c(Cl)c2)N(C([2H])([2H])[2H])S(=O)(=O)N[C@]1([2H])c1ncc(-c2cn(C([2H])([2H])[2H])cn2)s1` (stereo in doubt) [HBV-CSU-339-ISO-II, Cis-N-(3-Chloro-4-fluorophenyl)-2-(methyl-d3)-5-(5-(1-(methyl-d3)-1H-imidazol-4-yl)thiazol-2-yl)-1,2,6-thiadiazinane-3,4,5-d3-3-carboxamide 1,1-dioxide] belongs 1 to 5 µM; to `[2H]C1[C@]([2H])(c2ncc(-c3cn(C)cn3)s2)NS(=O)(=O)N(C([2H])([2H])[2H])[C@]1([2H])C(=O)Nc1ccc(F)c(Cl)c1` (stereo in doubt) [HBV-CSU-340-ISO-I, Cis-N-(3-Chloro-4-fluorophenyl)-2-(methyl-d3)-5-(5-(1-methyl-1H-imidazol-4-yl)thiazol-2-yl)-1,2,6-thiadiazinane-3,4,5-d3-3-carboxamide 1,1-dioxide], less than 1 µM. For the compound `[2H]C1[C@]([2H])(C(=O)Nc2ccc(F)c(Cl)c2)N(C([2H])([2H])[2H])S(=O)(=O)N[C@]1([2H])c1ncc(-c2cn(C)cn2)s1` (stereo in doubt) [HBV-CSU-340-ISO-II, Cis-N-(3-Chloro-4-fluorophenyl)-2-(methyl-d3)-5-(5-(1-methyl-1H-imidazol-4-yl)thiazol-2-yl)-1,2,6-thiadiazinane-3,4,5-d3-3-carboxamide 1,1-dioxide], the EC50 fell in the range of 1 to 5 µM. In the case of `[2H]C1[C@]([2H])(c2ncc(-c3cn(C([2H])([2H])[2H])cn3)s2)NS(=O)(=O)N(C)[C@]1([2H])C(=O)Nc1ccc(F)c(Cl)c1` (stereo in doubt) [HBV-CSU-341-ISO-I, Cis-N-(3-Chloro-4-fluorophenyl)-2-methyl-5-(5-(1-(methyl-d3)-1H-imidazol-4-yl)thiazol-2-yl)-1,2,6-thiadiazinane-3,4,5-d3-3-carboxamide 1,1-dioxide] it was less than 1 µM; in that of `[2H]C1[C@]([2H])(C(=O)Nc2ccc(F)c(Cl)c2)N(C)S(=O)(=O)N[C@]1([2H])c1ncc(-c2cn(C([2H])([2H])[2H])cn2)s1` (stereo in doubt) [HBV-CSU-341-ISO-II, Cis-N-(3-Chloro-4-fluorophenyl)-2-methyl-5-(5-(1-(methyl-d3)-1H-imidazol-4-yl)thiazol-2-yl)-1,2,6-thiadiazinane-3,4,5-d3-3-carboxamide 1,1-dioxide], 1 to 5 µM; in that of `[2H]C1[C@]([2H])(c2ccc(Br)s2)NS(=O)(=O)N(C)[C@]1([2H])C(=O)Nc1ccc(F)c(Cl)c1` (stereo in doubt) [HBV-CSU-371-ISO-I, Cis-5-(5-Bromothiophen-2-yl)-N-(3-chloro-4-fluorophenyl)-2-methyl-1,2,6-thiadiazinane-3,4,5-d3-3-carboxamide 1,1-dioxide], less than 1 µM. To `[2H]C1[C@]([2H])(C(=O)Nc2ccc(F)c(Cl)c2)N(C)S(=O)(=O)N[C@]1([2H])c1ccc(Br)s1` (stereo in doubt) [HBV-CSU-371-ISO-II, Cis-5-(5-Bromothiophen-2-yl)-N-(3-chloro-4-fluorophenyl)-2-methyl-1,2,6-thiadiazinane-3,4,5-d3-3-carboxamide 1,1-dioxide] belongs 1 to 5 µM; to `[2H]C1[C@]([2H])(c2ccc(Br)s2)NS(=O)(=O)N(C([2H])([2H])[2H])[C@]1([2H])C(=O)Nc1ccc(F)c(Cl)c1` (stereo in doubt) [HBV-CSU-372-ISO-I, Cis-5-(5-bromothiophen-2-yl)-N-(3-chloro-4-fluorophenyl)-2-(methyl-d3)-1,2,6-thiadiazinane-3,4,5-d3-3-carboxamide 1,1-dioxide], less than 1 µM; to `[2H]C1[C@]([2H])(C(=O)Nc2ccc(F)c(Cl)c2)N(C([2H])([2H])[2H])S(=O)(=O)N[C@]1([2H])c1ccc(Br)s1` (stereo in doubt) [HBV-CSU-372-ISO-II, Cis-5-(5-bromothiophen-2-yl)-N-(3-chloro-4-fluorophenyl)-2-(methyl-d3)-1,2,6-thiadiazinane-3,4,5-d3-3-carboxamide 1,1-dioxide], 1 to 5 µM. In the case of `[2H]C([2H])([2H])N1[C@@H](C(=O)Nc2ccc(F)c(Cl)c2)CC(c2ccc(-c3cn(C)cn3)s2)NS1(=O)=O` (stereo in doubt) [HBV-CSU-373-ISO-II, Cis-N-(3-Chloro-4-fluorophenyl)-2-(methyl-d3)-5-(5-(1-methyl-1H-imidazol-4-yl)thiophen-2-yl)-1,2,6-thiadiazinane-3-carboxamide 1,1-dioxide] it was less than 1 µM; in that of `[2H]C([2H])([2H])N1[C@H](C(=O)Nc2ccc(F)c(Cl)c2)C[C@H](c2ccc(-c3cn(C([2H])([2H])[2H])cn3)s2)NS1(=O)=O` (stereo in doubt) [HBV-CSU-374-ISO-I, Cis-N-(3-Chloro-4-fluorophenyl)-2-(methyl-d3)-5-(5-(1-(methyl-d3)-1H-imidazol-4-yl)thiophen-2-yl)-1,2,6-thiadiazinane-3-carboxamide 1,1-dioxide], less than 1 µM; in that of `[2H]C([2H])([2H])N1[C@@H](C(=O)Nc2ccc(F)c(Cl)c2)C[C@@H](c2ccc(-c3cn(C([2H])([2H])[2H])cn3)s2)NS1(=O)=O` (stereo in doubt) [HBV-CSU-374-ISO-II, Cis-N-(3-Chloro-4-fluorophenyl)-2-(methyl-d3)-5-(5-(1-(methyl-d3)-1H-imidazol-4-yl)thiophen-2-yl)-1,2,6-thiadiazinane-3-carboxamide 1,1-dioxide], less than 1 µM. On to `[2H]C1[C@]([2H])(c2ccc(-c3cn(C)cn3)s2)NS(=O)(=O)N(C)[C@]1([2H])C(=O)Nc1ccc(F)c(Cl)c1` (stereo in doubt) [HBV-CSU-375-ISO-I, Cis-N-(3-Chloro-4-fluorophenyl)-2-methyl-5-(5-(1-methyl-1H-imidazol-4-yl)thiophen-2-yl)-1,2,6-thiadiazinane-3,4,5-d3-3-carboxamide 1,1-dioxide], for which the EC50 was less than 1 µM.

On to `[2H]C1[C@]([2H])(C(=O)Nc2ccc(F)c(Cl)c2)N(C)S(=O)(=O)N[C@]1([2H])c1ccc(-c2cn(C)cn2)s1` (stereo in doubt) [HBV-CSU-375-ISO-II, Cis-N-(3-Chloro-4-fluorophenyl)-2-methyl-5-(5-(1-methyl-1H-imidazol-4-yl)thiophen-2-yl)-1,2,6-thiadiazinane-3,4,5-d3-3-carboxamide 1,1-dioxide], for which the EC50 lay within 1 to 5 µM. In the case of `[2H]C1[C@]([2H])(c2ccc(-c3cn(C([2H])([2H])[2H])cn3)s2)NS(=O)(=O)N(C)[C@]1([2H])C(=O)Nc1ccc(F)c(Cl)c1` (stereo in doubt) [HBV-CSU-376-ISO-I, Cis-N-(3-Chloro-4-fluorophenyl)-2-methyl-5-(5-(1-(methyl-d3)-1H-imidazol-4-yl)thiophen-2-yl)-1,2,6-thiadiazinane-3,4,5-d3-3-carboxamide 1,1-dioxide] it was less than 1 µM.
